From patent publication US8518989B2, “Prodrugs of short-chain fatty acids and treatment methods” (Georgia Health Sciences University Research Institute, Inc., priority 2005, dated 2013)

Assays:
human SLC5A8 [1] = biological target: T1, human SLC5A8 (Homo sapiens, UniProt Q8N695, F251V/V193I); experiment: Two-microelectrode voltage clamp of substrate-induced currents in SLC5A8-expressing oocytes; format: cell-based; settings: for K0.5 for SLC5A8: Na+ 100 mM
T1 construct: We amplified the coding region of SLC5A8 mRNA by RT-PCR using human intestinal mRNA as the template; expressed in transfected cells; host or cells: Xenopus laevis oocytes, 50 ng capped cRNA from the pGH19 construct
T1 sequence (Q8N695 1-610 V193I/F251V): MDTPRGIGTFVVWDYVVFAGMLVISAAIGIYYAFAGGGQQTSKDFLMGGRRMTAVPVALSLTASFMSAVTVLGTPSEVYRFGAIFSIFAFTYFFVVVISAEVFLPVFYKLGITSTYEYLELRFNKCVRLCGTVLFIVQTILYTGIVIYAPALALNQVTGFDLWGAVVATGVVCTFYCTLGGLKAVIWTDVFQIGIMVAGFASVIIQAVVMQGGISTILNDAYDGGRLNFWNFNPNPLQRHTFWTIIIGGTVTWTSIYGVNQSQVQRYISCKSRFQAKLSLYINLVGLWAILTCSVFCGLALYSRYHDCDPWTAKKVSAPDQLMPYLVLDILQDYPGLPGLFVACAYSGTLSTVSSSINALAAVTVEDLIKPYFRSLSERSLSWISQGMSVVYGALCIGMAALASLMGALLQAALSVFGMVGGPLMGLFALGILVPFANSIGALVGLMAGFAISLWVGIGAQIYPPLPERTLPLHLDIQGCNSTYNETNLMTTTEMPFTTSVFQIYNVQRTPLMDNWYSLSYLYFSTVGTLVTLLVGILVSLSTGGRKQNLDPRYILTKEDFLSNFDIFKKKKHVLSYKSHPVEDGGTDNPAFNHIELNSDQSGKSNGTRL
Description: (§1) The amplified human SLC5A8 cDNA was expressed heterologously in Xenopus oocytes by cRNA injection. Capped cRNA from SLC5A8 cDNA was synthesized using the mMESSAGE mMACHINE kit (Ambion Inc., Austin, Tex.). Mature oocytes (stage 1V or V) from Xenopus laevis were injected with 50 ng cRNA. Uninjected oocytes served as controls. The oocytes were used for uptake and electrophysiological studies 3-6 days after cRNA injection. Uptake of radiolabeled substrates in uninjected and cRNA-injected oocytes was determined as described previously (Fei, Y. J., et al., (1995) Biochemistry 34, 8744-8751).
(§2) Eight oocytes were used for each uptake measurement. Electrophysiological studies were performed by the two-microelectrode voltage clamp method (11. Wang, H., Fei, et al., (2000) Am. J. Physiol. 278:C1019-C1030; Inoue, K, et al. (2004) Biochem. J. 378:949-957).
Oocytes were perfused with a NaCl-containing buffer (100 mM NaCl, 2 mM KCl, 1 mM MgCl2, 1 mM CaCl2, 3 mM Hepes, 3 mM Mes, and 3 mM Tris, pH 7.5), followed by the same buffer containing different fatty acids. The membrane potential was clamped at −50 mV. The differences between the steady-state currents measured in the presence and absence of substrates were considered as the substrate-induced currents. To investigate the current-membrane potential (I—V) relationship, step changes in membrane potential were applied, each for a duration of 100 ms in 20-mV increments. The kinetic parameter K0.5 (i.e. the substrate concentration necessary for the induction of half-maxima) current) was calculated by fitting the values of the substrate-induced currents to Michaelis-Menten equation. The Na^+-activation kinetics was analyzed by measuring the substrate-specific currents in the presence of increasing concentrations of Na^+. The data were analyzed by the Hill equation to determine the Hill coefficient (h; the number of Na^+ ions involved in the activation process). The kinetic parameters were determined using the computer program Sigma Plot, version 6.0 (SPSS, Inc., Chicago, Ill.). Electrophysiological measurements of substrate-induced currents were repeated at least four times with separate oocytes. The data are presented as means±S.E. of these replicates.
The charge-to substrate transfer ratio was determined for propionate in four different oocytes as described previously (Wang, H., et al. (2000) Am. J. Physiol. 278:C1019-C1030 12. Inoue, K., Fei, Y. J., Zhuang, L., Gopal, E., Miyauchi, S., and Ganapathy, V. (2004) Biochem. J. 378:949-957). The oocytes were perfused with 25 μM propionate (unlabeled plus radiolabeled propionate), and inward currents were monitored over a period of 8-10 min. At the end of the experiment, the amount of propionate transported into the oocytes was calculated by measuring the radioactivity associated with the oocytes. The area within the curve describing the relationship between the time and inward current was integrated to calculate the charge transferred into the oocyte during incubation with propionate. The values for substrate transfer and charge transfer were used to determine the charge to substrate transfer ratio.

SW480 = SW480 cells; cited from earlier work
[2] = system: all three isoforms of NOS; settings: read-out: Km for arginine; cited from earlier work
human SLC5A8 [3] = biological target: T1, human SLC5A8; experiment: Uptake of radiolabeled short-chain fatty acids in Xenopus oocytes injected with SLC5A8 cRNA; format: cell-based; design: Uptake, uninjected oocytes / Uptake, cRNA-injected oocytes: unit not given here; settings: 1 h incubation; for Uptake, cRNA-injected oocytes: SLC5A8 cRNA-injected oocytes; for Uptake, uninjected oocytes: uninjected control oocytes
Description: as §1, §2
Uptake of short-chain fatty acids in uninjected oocytes and in oocytes injected with SLC5A8 cRNA was measured with 1 h incubation. Concentration of substrates (labeled plus unlabeled) varied in the range of 50-500 μM depending on the specific radioactivity of the substrates. Eight oocytes were used for each uptake measurement. Data represent means±SE.

[4] = system: MCF7 cells transfected with SMCT1 cDNA; experiment: Colony formation assay in MCF7 cells transfected with SMCT1 cDNA; format: cell-based, human; settings: SMCT1-expressing MCF7 cells; for IC50: two weeks
[5] = system: SMCT1 and C/EBPδ expression; experiment: Induction of SMCT1 and C/EBPδ expression in MCF7 cells (RT-PCR); format: cell-based, human; settings: NaB 5 mM, TSA 1 μM, MAA 5 mM, VPA 2 mM, 18 or 24 h
Description: RT-PCR: Two μg of RNA was reverse transcribed using the Gene Amp PCR system (Roche) according to the manufacturer's instructions. Amplification of cDNA corresponding to mouse [NT] (sense) (SEQ ID NO:9), [NT] (anti-sense) (SEQ ID NO: 10)], mouse [NT] (sense) (SEQ ID NO:11), [NT] (anti-sense) (SEQ ID NO:12)], human [NT] (sense) (SEQ ID NO:13), [NT] (anti-sense) (SEQ ID NO:14)], and human C/EBPδ [[NT] (sense) (SEQ ID NO:15), [NT] (anti-sense) (SEQ ID NO:16)] was carried out using HPRT1 (hypoxanthine guanine phosphoribosyl transferase 1) as an internal control.

MCF7, T47D, and ZR75.1 = experiment: Apoptosis in breast tumor cell lines (FACS, sub-G1); format: cell-based, human
Description: (§3) Cell cycle analysis: Cells were fixed in 50% ethanol, treated with 0.1% sodium citrate, 1 mg/ml RNase A, and 50 μg/ml propidium iodide, and subjected to FACS (Becton Dickinson FacsCaliber) analysis. Cells with DNA content below Cl were scored as apoptotic population.

HDAC = HDAC activity in a cell-free system with MCF7 cell lysate; format: biochemical, human
Description: Measurement of HDAC activity in a cell-free system: This was done using a commercially available assay kit (BioVision). MCF7 cell lysate was used as a source of HDAC activity. 50 μg of lysate protein was incubated with various monocarboxylates (1 mM), or trichostatin A (20 μM), and the reaction was initiated by the addition of HDAC substrate. The reaction was then terminated and the deacetylated product was measured according to the manufacturer's instructions. The activity is expressed in nmoles of deacetylated product formed per μg of MCF7 cell lysate protein per 30 min.

HMEC, HBL100, and MCF10A = experiment: Apoptosis in non-transformed mammary epithelial cell lines (FACS, sub-G1); format: cell-based, human; settings: normal mammary epithelial cells expressing SMCT1
Description: as §3

rat ATB^0,+ [6] = biological target: T2, rat ATB^0,+ (Rattus norvegicus, UniProt Q334I2); experiment: Inhibition of ATB0,+-mediated 3H-glycine uptake in HRPE cells expressing cloned rat ATB0,+; format: cell-based; settings: 5 mM; HRPE cells
T2 sequence (Q334I2 1-640): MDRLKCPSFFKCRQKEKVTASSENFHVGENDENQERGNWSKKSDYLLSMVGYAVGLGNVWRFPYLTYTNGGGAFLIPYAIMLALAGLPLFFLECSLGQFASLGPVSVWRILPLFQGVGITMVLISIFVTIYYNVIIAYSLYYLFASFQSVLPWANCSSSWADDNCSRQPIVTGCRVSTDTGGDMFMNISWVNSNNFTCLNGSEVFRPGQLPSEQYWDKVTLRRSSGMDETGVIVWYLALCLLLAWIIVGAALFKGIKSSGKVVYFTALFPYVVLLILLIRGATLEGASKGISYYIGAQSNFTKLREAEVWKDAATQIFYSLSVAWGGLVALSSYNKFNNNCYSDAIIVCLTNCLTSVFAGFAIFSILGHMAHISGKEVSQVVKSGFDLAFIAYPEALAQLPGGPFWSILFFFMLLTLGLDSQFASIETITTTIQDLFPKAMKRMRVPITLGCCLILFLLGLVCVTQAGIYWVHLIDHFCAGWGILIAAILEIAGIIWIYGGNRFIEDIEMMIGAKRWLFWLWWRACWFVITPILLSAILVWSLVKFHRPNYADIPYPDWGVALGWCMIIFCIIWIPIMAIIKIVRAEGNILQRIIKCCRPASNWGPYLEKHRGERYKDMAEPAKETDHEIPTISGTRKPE

rat ATB^0,+ [7] = biological target: T2, rat ATB^0,+; experiment: Substrate-induced inward currents in Xenopus oocytes expressing rat ATB0,+ (voltage clamp); format: cell-based; settings: 5 mM; voltage clamp
Description: Experiments with HRPE cells were repeated at least three times with three independent transfections and transport measurements made in duplicate in each experiment. Electrophysiological measurements of substrate-induced currents were repeated at least three times with separate oocytes. The data are presented as means±S.E.M. of these replicates. The kinetic parameters, Michaelis constant (Kt) and maximal velocity (Vmax) were calculated by fitting the ATB^0,+-specific transport data to the Michaelis-Menten equation describing a single saturable transport system. Na^+ and Cl^−-activation kinetics were analyzed by fitting the ATB^0,+-specific transport data to the Hill equation for the determination of K0.5 values for Na^+ and Cl^− (concentration of Na^+ and Cl^− necessary for half-maximal activation) and the Hill coefficient (nH; the number of Na^+ or Cl^− ions involved in the activation process). The kinetics parameters were first determined by non-linear regression methods and subsequently confirmed by linear regression methods using the commercially-available computer program SigmaPlot, version 6.0 (SPSS Inc., Chicago, Ill., US).
Therefore, it was necessary to determine whether or not the α-carboxyl esters of neutral amino acids are transportable substrates for ATB^0,+. For this purpose, we used the X. laevis oocyte expression system. Cloned rat ATB^0,+ was functionally expressed in oocytes by injection of corresponding cRNA, and the transport of substrates via the transporter was monitored by inward currents when the oocytes were exposed to putative substrates under voltage-clamp conditions.

CCCCCCCC(=O)O [octanoate]
Relative magnitude of substrate-induced currents (human SLC5A8 [1]; 5 mM, -50 mV): lowest

EGF: growth factor used as mitogenic stimulus in SW480 cells
Cell proliferation (SW480): 27% | Increase of Na+-dependent arginine transport (SW480): 66%

N=C(N)NCCC[C@H](N)C(=O)O [arginine]
Km [2]: 3 to 30 µM

C[C@H](O)C(=O)O [L-lactate]
Fold increase of uptake (cRNA-injected over uninjected) (human SLC5A8 [3]): 44.7 fold | Uptake, cRNA-injected oocytes (human SLC5A8 [3]): 0.402 ± 0.026 | Uptake, uninjected oocytes (human SLC5A8 [3]): 0.009 ± 0.001 | Inward current induced (human SLC5A8 [1]; 5 mM, -50 mV, taken as 100%): 489±94 nA | K0.5 for SLC5A8 (human SLC5A8 [1]; four oocytes): 235 ± 24 µM

CCCC(=O)O [butyrate]
IC50 ([4]; Homo sapiens, 336 h): 37 ± 5 µM

CCCCC(=O)O [pentanoate]
Relative magnitude of substrate-induced currents (human SLC5A8 [1]; 5 mM, -50 mV): intermediate

CC(=O)C(=O)O [pyruvate]
IC50 ([4]; Homo sapiens, 336 h): 72 ± 12 µM

CCCC(CCC)C(=O)O [valproate, valproic acid]
Induction of SMCT1 and C/EBPδ expression [5]: no or little activity | Induction of apoptosis (MCF7, T47D, and ZR75.1): do not have any effect on apoptosis

COCC(=O)O [methoxyacetate, methoxyacetic acid]
Induction of SMCT1 and C/EBPδ expression [5]: no or little activity | Induction of apoptosis (MCF7, T47D, and ZR75.1): do not have any effect on apoptosis

CC(O)C(=O)O (centres unmarked) [lactate]
HDAC inhibition (in words) (HDAC): does not | Effect on cell growth / apoptosis [4]: no effect on cell growth

TGF-α: growth factor used as mitogenic stimulus in SW480 cells
Cell proliferation (SW480): 37% | Increase of Na+-dependent arginine transport (SW480): 100%

C[C@@H](O)C(=O)O [D-lactate]
Uptake, cRNA-injected oocytes (human SLC5A8 [3]): 1.090 ± 0.041 | Uptake, uninjected oocytes (human SLC5A8 [3]): 0.028 ± 0.002 | K0.5 for SLC5A8 (human SLC5A8 [1]; four oocytes): 742 ± 330 µM

[I-].[Na+] [NaI]
Current in SLC5A8 cRNA-injected oocytes (detectable or not) (human SLC5A8 [1]; 5 mM): did not induce any detectable current

CC(/C=C/C(=O)NO)=C\[C@@H](C)C(=O)c1ccc(N(C)C)cc1 [trichostatin A]
Induction of apoptosis (HMEC, HBL100, and MCF10A): does not induce apoptosis | Induction of SMCT1 and C/EBPδ expression [5]: induce the expression of both genes | Induction of apoptosis (MCF7, T47D, and ZR75.1): cause apoptosis specifically in tumor cell lines

CCC(=O)O [propionate]
Inhibition of ATB0,+-mediated glycine transport (in words) (rat ATB^0,+ [6]): did not inhibit glycine transport | Inward currents induced in ATB0,+-expressing oocytes (in words) (rat ATB^0,+ [7]): did not induce detectable current | Fold increase of uptake (cRNA-injected over uninjected) (human SLC5A8 [3]): 15.9 fold | Uptake, cRNA-injected oocytes (human SLC5A8 [3]): 0.255 ± 0.014 | Uptake, uninjected oocytes (human SLC5A8 [3]): 0.016 ± 0.001 | Charge-to-substrate transfer ratio (human SLC5A8 [1]; 25 μM substrate, four oocytes): 3.1±0.1 | Hill coefficient (h) for Na+ (human SLC5A8 [1]; 5 mM substrate): 2.0±0.1 | Relative magnitude of substrate-induced currents (human SLC5A8 [1]; 5 mM, -50 mV): maximal | K0.5 for SLC5A8 (human SLC5A8 [1]; four oocytes): 127 ± 14 µM | Effect on cell growth / apoptosis [4]: induce apoptosis | IC50 [4]: 205 ± 40 µM
